Test results published in PMC2808337, “Lactococcus lactis, an Alternative System for Functional Expression of Peripheral and Intrinsic Arabidopsis Membrane Proteins” (PLoS ONE, 2010).

Assays:
AtAATP1 = target: T1, AtAATP1 (Arabidopsis thaliana, UniProt Q39002); assay: radioactive ATP uptake into intact L. lactis cells, filtration; assay type: cell-based; settings: 50 µM [α-32P]ATP, 50 mM potassium phosphate pH 7.0, 25 °C; empty-vector control; labelled compound
T1 construct: gene AATP1; N-terminal attB-encoded extension, C-terminal Strep-tag II; in intact Lactococcus lactis NZ9000 cells
T1 sequence (Q39002 81-624): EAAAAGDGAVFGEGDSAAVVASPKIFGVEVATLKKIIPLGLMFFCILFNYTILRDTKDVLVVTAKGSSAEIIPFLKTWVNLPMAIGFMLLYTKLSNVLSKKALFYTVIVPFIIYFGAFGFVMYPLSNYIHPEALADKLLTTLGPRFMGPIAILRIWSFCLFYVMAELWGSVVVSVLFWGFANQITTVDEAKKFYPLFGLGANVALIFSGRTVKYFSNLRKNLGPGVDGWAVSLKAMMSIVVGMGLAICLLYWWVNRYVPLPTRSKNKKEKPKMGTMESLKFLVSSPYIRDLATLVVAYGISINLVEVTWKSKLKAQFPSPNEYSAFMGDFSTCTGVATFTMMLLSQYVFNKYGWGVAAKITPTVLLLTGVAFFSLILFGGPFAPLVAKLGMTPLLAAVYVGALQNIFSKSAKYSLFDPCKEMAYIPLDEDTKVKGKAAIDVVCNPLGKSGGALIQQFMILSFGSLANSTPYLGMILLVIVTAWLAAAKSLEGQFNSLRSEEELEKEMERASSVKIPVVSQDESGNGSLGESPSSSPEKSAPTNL

ceQORH = target: T2, ceQORH (Arabidopsis thaliana, UniProt Q9SV68); assay: spectrophotometric NBT reduction to formazan, […] nm; assay type: biochemical; settings: 100 µM NBT, 100 µM NADPH, soybean lipids, 10 mM Tris-HCl pH 8.0, artificial electron acceptor
T2 construct: mostly monomer, expected mass 34 kDa
T2 sequence (Q9SV68 1-329): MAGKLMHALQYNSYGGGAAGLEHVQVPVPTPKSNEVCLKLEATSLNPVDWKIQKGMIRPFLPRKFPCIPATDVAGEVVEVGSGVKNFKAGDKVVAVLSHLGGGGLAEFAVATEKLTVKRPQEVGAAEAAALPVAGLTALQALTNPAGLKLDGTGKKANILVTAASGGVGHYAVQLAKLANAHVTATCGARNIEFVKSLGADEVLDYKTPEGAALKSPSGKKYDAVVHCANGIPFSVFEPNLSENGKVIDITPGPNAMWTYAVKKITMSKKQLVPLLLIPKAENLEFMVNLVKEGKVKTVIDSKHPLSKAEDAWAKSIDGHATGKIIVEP

Nc1ncnc2c1ncn2[C@@H]1O[C@H](COP(=O)(O)OP(=O)(O)OP(=O)(O)O)[C@@H](O)[C@H]1O [[α-32P] ATP]
radioactive ATP uptake into intact L. lactis cells, filtration (AtAATP1): recombinant AtAATP1 protein produced in L. lactis is able to transport ATP

NC(=O)C1=CN([C@@H]2O[C@H](COP(=O)(O)OP(=O)(O)OC[C@H]3O[C@@H](n4cnc5c(N)ncnc54)[C@H](OP(=O)(O)O)[C@@H]3O)[C@@H](O)[C@H]2O)C=CC1 [NADPH]
spectrophotometric NBT reduction to formazan, 550 nm (ceQORH; electron donor): ceQORH protein indeed has NADPH-dependent dehydrogenase activity

COc1cc(-c2ccc(-[n+]3nc(-c4ccccc4)nn3-c3ccc([N+](=O)[O-])cc3)c(OC)c2)ccc1-[n+]1nc(-c2ccccc2)nn1-c1ccc([N+](=O)[O-])cc1 [NBT]
spectrophotometric NBT reduction to formazan, 550 nm (ceQORH): the ceQORH protein, in combination with lipids and NADPH reduces the NBT to formazan
